Reference: ChEMBL document CHEMBL3112450, “Synthesis and in vitro antitumor evaluation of primary amine substituted quinazoline linked benzimidazole” (Bioorg Med Chem Lett, 2014)

Columns and labels:
Type in all cases: functional
[1] = tested on: NCI-H460; assay: Cytotoxicity against human NCI-H460 cells assessed as cell growth at 10^-6 M after 48 hrs by SRB assay; conditions: NCI-H460, 48 h, read-out: Activity
[2] = tested on: COLO 205; assay: Cytotoxicity against human COLO205 cells assessed as cell growth at 10^-8 M after 48 hrs by SRB assay; conditions: COLO 205, 48 h, read-out: Activity
[3] = tested on: MDA-MB-231; assay: Cytotoxicity against human MDA-MB-231 cells assessed as cell growth at 10^-7 M after 48 hrs by SRB assay; conditions: MDA-MB-231, 48 h, read-out: Activity
[4] = tested on: HCC 2998; assay: Cytotoxicity against human HCC2998 cells assessed as cell growth at 10^-8 M after 48 hrs by SRB assay; conditions: HCC 2998, 48 h, read-out: Activity
[5] = Cytotoxicity against human NCI-ADR-RES cells assessed as cell growth at 10^-8 M after 48 hrs by SRB assay; conditions: read-out: Activity
[6] = Cytotoxicity against human UO31 cells assessed as cell growth at 10^-4 M after 48 hrs by SRB assay; conditions: UO-31, 48 h, read-out: Activity
[7] = tested on: RXF 393; assay: Cytotoxicity against human RXF393 cells assessed as cell growth at 10^-4 M after 48 hrs by SRB assay; conditions: RXF 393, 48 h, read-out: Activity
[8] = tested on: LOX IMVI; assay: Cytotoxicity against human LOXIMVI cells assessed as cell growth at 10^-4 M after 48 hrs by SRB assay; conditions: read-out: Activity
[9] = tested on: TK-10; assay: Cytotoxicity against human TK10 cells assessed as cell growth at 10^-6 M after 48 hrs by SRB assay; conditions: TK-10, 48 h, read-out: Activity
[10] = tested on: SF-268; assay: Cytotoxicity against human SF268 cells assessed as cell growth at 10^-4 M after 48 hrs by SRB assay; conditions: SF-268, 48 h, read-out: Activity
[11] = tested on: MOLT-4; assay: Cytotoxicity against human MOLT4 cells assessed as cell growth at 10^-7 M after 48 hrs by SRB assay; conditions: MOLT-4, 48 h, read-out: Activity
[12] = tested on: SW-620; assay: Cytotoxicity against human SW620 cells assessed as cell growth at 10^-7 M after 48 hrs by SRB assay; conditions: SW-620, 48 h, read-out: Activity
[13] = Cytotoxicity against human Hs578T cells assessed as cell growth at 10^-6 M after 48 hrs by SRB assay; conditions: Hs-578T, read-out: Activity
[14] = tested on: SK-MEL-28; assay: Cytotoxicity against human SK-MEL-28 cells assessed as cell growth at 10^-4 M after 48 hrs by SRB assay; conditions: SK-MEL-28, 48 h, read-out: Activity
[15] = tested on: SK-MEL-2; assay: Cytotoxicity against human SK-MEL-2 cells assessed as cell growth at 10^-7 M after 48 hrs by SRB assay; conditions: SK-MEL-2, 48 h, read-out: Activity
[16] = tested on: SNB-19; assay: Cytotoxicity against human SNB19 cells assessed as cell growth at 10^-8 M after 48 hrs by SRB assay; conditions: SNB-19, 48 h, read-out: Activity
[17] = tested on: U-251; assay: Cytotoxicity against human U251 cells assessed as cell growth at 10^-4 M after 48 hrs by SRB assay; conditions: U-251, 48 h, read-out: Activity
[18] = tested on: HT-29; assay: Cytotoxicity against human HT-29 cells assessed as cell growth at 10^-4 M after 48 hrs by SRB assay; conditions: HT-29, 48 h, read-out: Activity
[19] = tested on: HCT-15; assay: Cytotoxicity against human HCT15 cells assessed as cell growth at 10^-8 M after 48 hrs by SRB assay; conditions: HCT-15, 48 h, read-out: Activity
[20] = tested on: SW-620; assay: Cytotoxicity against human SW620 cells after 48 hrs by SRB assay; conditions: SW-620, 48 h
[21] = tested on: HOP-62; assay: Cytotoxicity against human HOP62 cells assessed as cell growth at 10^-7 M after 48 hrs by SRB assay; conditions: HOP-62, 48 h, read-out: Activity
[22] = tested on: K562; assay: Cytotoxicity against human K562 cells assessed as cell growth at 10^-6 M after 48 hrs by SRB assay; conditions: K562, 48 h, read-out: Activity
[23] = tested on: ACHN; assay: Cytotoxicity against human ACHN cells assessed as cell growth at 10^-7 M after 48 hrs by SRB assay; conditions: read-out: Activity
[24] = tested on: MDA-MB-435; assay: Cytotoxicity against human MDA-MB-435 cells after 48 hrs by SRB assay; conditions: MDA-MB-435, 48 h
[25] = Cytotoxicity against human NCI-ADR-RES cells after 48 hrs by SRB assay
[26] = Cytotoxicity against human OVCAR4 cells assessed as cell growth at 10^-6 M after 48 hrs by SRB assay; conditions: OVCAR-4, 48 h, read-out: Activity
[27] = tested on: DU-145; assay: Cytotoxicity against human DU145 cells after 48 hrs by SRB assay; conditions: DU-145, 48 h
[28] = tested on: TK-10; assay: Cytotoxicity against human TK10 cells assessed as cell growth at 10^-4 M after 48 hrs by SRB assay; conditions: TK-10, 48 h, read-out: Activity
[29] = tested on: Malme-3M; assay: Cytotoxicity against human MALME-3M cells assessed as cell growth at 10^-4 M after 48 hrs by SRB assay; conditions: read-out: Activity
[30] = tested on: U-251; assay: Cytotoxicity against human U251 cells after 48 hrs by SRB assay; conditions: U-251, 48 h
[31] = tested on: SF-295; assay: Cytotoxicity against human SF295 cells after 48 hrs by SRB assay; conditions: SF-295, 48 h
[32] = tested on: HCT-116; assay: Cytotoxicity against human HCT116 cells assessed as cell growth at 10^-7 M after 48 hrs by SRB assay; conditions: HCT-116, 48 h, read-out: Activity
[33] = tested on: RXF 393; assay: Cytotoxicity against human RXF393 cells assessed as cell growth at 10^-6 M after 48 hrs by SRB assay; conditions: RXF 393, 48 h, read-out: Activity
[34] = tested on: SR; assay: Cytotoxicity against human SR cells after 48 hrs by SRB assay
[35] = Cytotoxicity against human EKVX cells assessed as cell growth at 10^-5 M after 48 hrs by SRB assay; conditions: read-out: Activity
[36] = tested on: T47D; assay: Cytotoxicity against human T47D cells assessed as growth inhibition at 10 uM after 48 hrs by SRB assay; conditions: read-out: GI
[37] = tested on: OVCAR-8; assay: Cytotoxicity against human OVCAR8 cells assessed as growth inhibition at 10 uM after 48 hrs by SRB assay; conditions: OVCAR-8, 48 h, read-out: GI
[38] = tested on: RPMI-8226; assay: Cytotoxicity against human RPMI8226 cells assessed as growth inhibition at 10 uM after 48 hrs by SRB assay; conditions: RPMI-8226, 48 h, read-out: GI

Compound: C=CCn1c(C)nc2ccc(Nc3nc(Nc4ccc5nc(C)n(CC=C)c5c4)c4ccccc4n3)cc21
- growth at 1 µM [1]: 97%
- growth at 0.01 µM [2]: 105%
- growth at 0.1 µM [3]: 87%
- growth at 0.01 µM [4]: 92%
- growth at 0.01 µM [5]: 99%
- growth at 100 µM [6]: -46%
- growth at 100 µM [7]: -31%
- growth at 100 µM [8]: 7%
- growth at 1 µM [9]: 116%
- growth at 100 µM [10]: -33%
- growth at 0.1 µM [11]: 94%
- growth at 0.1 µM [12]: 94%
- growth at 1 µM [13]: 81%
- growth at 100 µM [14]: -39%
- growth at 0.1 µM [15]: 99%
- growth at 0.01 µM [16]: 92%
- growth at 100 µM [17]: -22%
- growth at 100 µM [18]: -16%
- growth at 0.01 µM [19]: 96%
- GI50 [20]: 1.5 µM
- TGI [20]: 2.94 µM
- growth at 0.1 µM [21]: 96%
- growth at 1 µM [22]: 68%
- growth at 0.1 µM [23]: 92%
- GI50 [24]: 1.73 µM
- TGI [24]: 3.33 µM
- GI50 [25]: 2.22 µM
- LC50 [25]: > 100 µM
- TGI [25]: 6.07 µM
- growth at 1 µM [26]: 84%
- GI50 [27]: 1.85 µM
- LC50 (50% lethal concentration) [27]: 5.79 µM
- TGI [27]: 3.27 µM
- growth at 100 µM [28]: -49%
- growth at 100 µM [29]: -5%
- GI50 [30]: 1.62 µM
- TGI [30]: 2.97 µM
- GI50 [31]: 1.84 µM
- TGI [31]: 3.53 µM
- growth at 0.1 µM [32]: 99%
- growth at 1 µM [33]: 99%
- GI50 [34]: 1.52 µM
- LC50 [34]: > 100 µM
- TGI [34]: 3.98 µM

Compound: C=CCn1c(C)nc2ccc(Nc3nc(NCCO)nc4ccccc34)cc21
- growth at 10 µM [35]: 95.5%

Compound: C=CCn1c(C)nc2ccc(Nc3nc(Nc4ccc(F)cc4)nc4ccccc34)cc21
- growth at 1 µM [1]: 88%
- growth at 0.01 µM [2]: 97%
- growth at 0.1 µM [3]: 98%
- growth at 0.01 µM [4]: 95%
- growth at 0.01 µM [5]: 100%
- growth at 100 µM [6]: -82%
- growth at 100 µM [7]: -56%
- growth at 100 µM [8]: -42%
- growth at 1 µM [9]: 100%
- growth at 100 µM [10]: -59%
- growth at 0.1 µM [11]: 96%
- growth at 0.1 µM [12]: 95%
- growth at 1 µM [13]: 86%
- growth at 100 µM [14]: -50%
- growth at 0.1 µM [15]: 101%
- growth at 0.01 µM [16]: 95%
- growth at 100 µM [17]: -80%
- growth at 100 µM [18]: -34%
- growth at 0.01 µM [19]: 99%
- GI50 [20]: 2.8 µM
- LC50 (concentration killing 50% of cells) [20]: > 100 µM
- TGI [20]: 10.7 µM
- growth at 0.1 µM [21]: 100%
- growth at 1 µM [22]: 96%
- growth at 0.1 µM [23]: 97%
- GI50 [24]: 4 µM
- LC50 (concentration killing 50% of cells) [24]: 92.4 µM
- TGI [24]: 20.4 µM
- GI50 [25]: 4.01 µM
- LC50 [25]: > 100 µM
- TGI [25]: 37.7 µM
- growth at 1 µM [26]: 85%
- inhibition of growth at 10 µM [36]: 50%
- GI50 [27]: 8.63 µM
- LC50 (50% lethal concentration) [27]: 54.7 µM
- TGI [27]: 22.8 µM
- growth at 100 µM [28]: -63%
- growth at 100 µM [29]: -51%
- GI50 [30]: 3.15 µM
- TGI [30]: 14.9 µM
- CC50 ([30]; read-out: LC50 (the source's name)): 48.9 µM
- GI50 [31]: 6.08 µM
- LC50 [31]: 51 µM
- TGI [31]: 20.3 µM
- growth at 0.1 µM [32]: 97%
- growth at 1 µM [33]: 64%
- GI50 [34]: 2.26 µM
- LC50 [34]: > 100 µM
- TGI [34]: 5.93 µM
- inhibition of growth at 10 µM [37]: 50%

Compound: C=CCn1c(C)nc2ccc(Nc3nc(Sc4ccc(N)cc4)nc4ccccc34)cc21
- inhibition of growth at 10 µM [38]: 40%
- inhibition of growth at 10 µM [36]: 30%
- growth at 10 µM [35]: 96.5%
- inhibition of growth at 10 µM [37]: 30%
